The record followed here is patent US4767781A, “Derivatives of beta-amino-gamma-trimethylammonio-butyrate and their production and use” (Takeda Chemical Industries, Ltd., priority 1981, dated 1988).

Where a name gives a salt, the structure may show the parent alone.

The subject of series [1] is fatty acid degradation which depends on carnitine added (rat liver homogenates). Kind of series: Inhibition of carnitine-dependent fatty acid degradation (14CO2 from 1-14C palmitic acid) in rat liver homogenate. Format: biochemical, rat (SD, male). As to the method: Then, the fatty acid degradation inhibiting activity of the compound (I), (III), (IV) was determined in accordance with the method described in P.75 "Metabolism of Lipids" which is Vol. 9 of "Seikagaku Jikken Koza" (Text of Biochemical Experiments)compiled by Tokyo Kagaku Dojin, published 1975, using rat liver homogenates. Thus, an SD strain rat (6 weeks of age, male) was fasted for one day and, then, bled to death. The liver was immediately excised and homogenized with 10 times (w/v) of a 0.25 M sucrose solution containing a 5 mM Tris-HCl buffer (pH 7.4), 0.1 mM EDTA and 1 mg/ml bovine serum albumin using a Teflon rod homogenizer. The homogenate was centrifuged at 820 ×g for 10 minutes and the supernatant was further centrifuged at 8,000 ×g for 10 minutes. The resultant pellets were suspended in the same sucrose solution as above to a concentration of 0.2 g wet liver weight/0.5 ml solution and 0.5 ml of the suspension was used as the enzyme solution in the reacrion. […] The inhibitory activity is shown as percentage of inhibitory activity to degradation activity of fatty acid facilitated by the addition of carnitine to that of not added of the compound.

For series [2], the system named is ketone bodies (β-hydroxybutyrate) in blood. Kind of series: Antiketogenic activity in fasted rats (blood β-hydroxybutyrate). Format: in vivo, rat (male Sprague-Dawley). The note with it: % of control rats; 50 mg/kg oral, 4 hours after dosing, 20 h fasted, n = 5. The protocol: Antiketogenic activities of derivatives of β-amino-γ-trimethylammonio-butyrate were measured as follows: […] Blood […] 4 hours later from a vein of tail and ketone bodies were measured as β-hydroxybutyrate according to the modified method of Williamson [D. H. Williamson et al.; Methods of Enzymatic Analysis, P454 (1968), Academic Press, New York]. The amount of ketone bodies was shown as a relative amount of β-hydroxybutyrate (percentage) to the amount of p-hydroxybutyrate in blood of control rats.

Series [3] can be described thus: Solubilities. The format is physicochemical.
A short description of series [4]: Stability in aqueous solution. The format is physicochemical. As to conditions: pH 3 to 9, 100° C., 10 minutes.
Where [5] appears, read: concentration of drug 2 mM, R2 = --OH.
The mark [6] stands for this setting: in petroleum ether, hexane, diethyl ether, benzene, ethyl acetate, chloroform.
[7] abbreviates: in pyridine, acetone, dimethyl sulfoxide, dimethylformamide.

For `CCCCCCCCCCCCCCCC(=O)N[C@H](CC(=O)[O-])C[N+](C)(C)C` [--CO(CH2)14 CH3, (R)-3-palmitoylamino-4-trimethylammoniobutyrate], the “Inhibition (%)” value in series [1] (concentration of drug 2 μM) and in series [1] (concentration of drug 20 μM) was 100% each time. The “relative amount of β-hydroxybutylate (%)” value in series [2] worked out at 6.7%.

In the case of `CC(=O)N[C@@H](CC(=O)O)C[N+](C)(C)C.[Cl-]` [--COCH3 (D-), [(S)-2-acetylamino-3-carboxypropyl]trimethylammonium chloride], the entries for the “Inhibition (%)” value in series [1] (concentration of drug 0.2 mM) and in series [1] (setting [5]) were 2% and 28%, respectively.

`CCCC(=O)N[C@H](CC(=O)[O-])C[N+](C)(C)C` [--CO(CH2)2 CH3, [(R)-3-carboxy-2-n-butyrylaminopropyl]trimethylammonium picrate]: the “Inhibition (%)” value in series [1] (setting [5]) is given as 50%.

As for `CC(=O)N[C@H](CC(=O)[O-])C[N+](C)(C)C` [FA-5859.hydrochloride], the Solubility result is on record as “Soluble” in series [3] (in ethanol, methanol); “Insoluble” in series [3] (setting [6]); “Hardly soluble” in series [3] (setting [7]); “Readily soluble” in series [3] (in water). The Stability result in series [4] is “stable”.

As for `C[N+](C)(C)C[C@@H](CC(=O)[O-])NC=O` [--COH, [(R)-3-carboxy-2-formylaminopropyl]trimethylammonium picrate], the results for the “Inhibition (%)” value in series [1] (concentration of drug 0.2 mM) and in series [1] (setting [5]) were 53% and 84%, respectively. Further, the “relative amount of β-hydroxybutylate (%)” value in series [2] was found to be 75.7%.

Turning to `CCC(=O)N[C@H](CC(=O)O)C[N+](C)(C)C.[Cl-]` [--COCH2 CH3, [(R)-3-carboxy-2-propionylaminopropyl]trimethylammonium chloride], the “Inhibition (%)” value in series [1] (setting [5]) was 44%.

On to `COC(=O)C[C@@H](N)C[N+](C)(C)C` [--OCH3, [(R)-2-ammonio-3-carbomethoxypropyl]trimethylammonium dipicrate], for which the “Inhibition (%)” value in series [1] (concentration of drug 2 μM) is 26%; in series [1] (concentration of drug 20 μM), 73%.

Consider `C[N+](C)(C)C[C@@H](CC(=O)O)NC(N)=O.[Cl-]` [--CONH2, [(R)-3-carboxy-2-carbamoylaminopropyl]trimethylammonium chloride], for which the entries for the “Inhibition (%)” value in series [1] (concentration of drug 0.2 mM) and in series [1] (setting [5]) were 34% and 72%, respectively. Moreover, in series [2], the “relative amount of β-hydroxybutylate (%)” value was found to be 63.2%.

Turning to `CN[C@H](CC(=O)[O-])C[N+](C)(C)C` [--CH3, [(R)-2-methylammonio-3-carboxypropyl]trimethylammonium . dichloride], the “Inhibition (%)” value in series [1] (concentration of drug 0.2 mM) turned out to be 89%; in series [1] (setting [5]), 100%. In addition, the “relative amount of β-hydroxybutylate (%)” value in series [2] was determined as 19.9%.

For the compound `CCOC(=O)C[C@@H](N)C[N+](C)(C)C` [--OCH2 CH3, [(R)-2-ammonio-3-carboethoxypropyl]trimethylammonium monochloride monopicrate], the figures for the “Inhibition (%)” value in series [1] (concentration of drug 2 μM) and in series [1] (concentration of drug 20 μM) were 37% and 85%, respectively. The “relative amount of β-hydroxybutylate (%)” value in series [2] is recorded as 5.9%.

For the compound `C[N+](C)(C)C[C@@H](CC(=O)[O-])NC(=O)OCc1ccccc1` [--COOCH2 C6 H5, (R)-3-benzyloxycarbonylamino-4-trimethylammoniobutyrate], the “Inhibition (%)” value in series [1] (concentration of drug 0.2 mM) was found to be 85%; in series [1] (setting [5]) it was 98%. Moreover, the “relative amount of β-hydroxybutylate (%)” value in series [2] is on record as 19.7%.

Take `C[N+](C)(C)C[C@@H](N)CC(=O)O.Cl.[Cl-]` [--H (D-), [(S)-2-ammonio-3-carboxypropyl]trimethylammonium dichloride]: the figures for the “Inhibition (%)” value in series [1] (concentration of drug 0.2 mM) and in series [1] (setting [5]) were 11% and 36%, respectively.

In the case of `C[N+](C)(C)C[C@H](N)CC(N)=O` [--NH2, [(R)-2-ammonio-3-carbamoylpropyl]trimethylammonium dipicrate], the entries for the “Inhibition (%)” value in series [1] (concentration of drug 2 μM), in series [1] (concentration of drug 20 μM) and in series [1] (concentration of drug 0.2 mM) were 10%, 27% and 67%, respectively.

With `CC(=O)N[C@H](CC(=O)[O-])C[N+](C)(C)C` [FA-5859], the Solubility entry in series [3] (in ethanol, methanol) was “Soluble”; in series [3] (setting [6]), “Insoluble”; in series [3] (setting [7]), “Hardly soluble”; in series [3] (in water) it was “Readily soluble”. Further, the Stability entry in series [4] is recorded as “Stable”.

Regarding `CCCCCCCCCCCCCC(=O)N[C@H](CC(=O)[O-])C[N+](C)(C)C` [--CO(CH2)12 CH3, (R)-3-myristoylamino-4-trimethylammoniobutyrate], the “relative amount of β-hydroxybutylate (%)” value in series [2] came to 7.9%.

In the case of `CCCOC(=O)C[C@@H](N)C[N+](C)(C)C` [--O(CH2)2 CH3, [(R)-2-ammonio-3-carbopropoxypropyl]trimethylammonium dipicrate], the entries for the “Inhibition (%)” value in series [1] (concentration of drug 2 μM) and in series [1] (concentration of drug 20 μM) were 41% and 69%, respectively.
